Read-outs that look alike come from different tables or passages of the source.
Columns and labels:
[1] = molecular target: insulin (human recombinant) (Homo sapiens, UniProt P01308); assay: Binding to insulin by ultraviolet spectroscopy; conditions: UV spectroscopy
[2] = Binding to steroid hormone by UV spectroscopy
Protocol: (§1) UV spectroscopy in a crystal plate was used to investigate whether CAP has specificity for estrogen alone or whether it can bind to other naturally occurring hormones. To start, CAP was dissolved in a 1:1 solution of water to ethanol at 1 mg/mL ( 3.27×10^−3 M ) and then diluted by thirds eight times. Next, the hormones were dissolved in a 1:1 solution of water to ethanol at a 1/100 dilution. An amount of 50 μL of each CAP dilution was added to 3 wells of a crystal plate, with one well serving as the control, with another 50 μL of 1:1 water to ethanol added, and the other two serving as experimental duplicates, with 50 μL of the prepared hormone solution added. Then, two additional wells were prepared to serve as controls: one containing 100 μL of 1:1 water to ethanol and the other containing 50 μL of prepared hormone solution and 50 μL of 1:1 water to ethanol. Finally, the plate was incubated for 1 h and read in a Spectramax UV-VIS scanning spectrophotometer, spanning wavelengths from 190 to 400 nm. Data analysis involved the subtraction of observed absorbance values from expected absorbance values generated from the control wells ([CAP + 1:1 solution] + [hormone + 1:1 solution] − [1:1 solution]) and plotting them as a function of CAP concentration. Because the solvent (1:1 solution of water–ethanol) was used as a control and subtracted from all wells, the resulting data reflected only the absorbances of the solute compounds. Since each compound has a different lambda maximal absorbance, analysis of the resulting data required finding one common wavelength at which the additions and subtractions of the spectra could be carried out and at which the absorbance of each compound was maximized.
Experiments were also performed to test whether the enhancement or antagonism observed in estradiol binding to the ESR1 might be due to vanilloid compounds binding directly to estradiol or to related steroidal hormones, perhaps protecting them from oxidation or forming a complex that prevented the estradiol binding to its receptor. No vanilloid compound bound to a measurable degree to estradiol or any other steroidal hormone tested.

[3] = molecular target: T1, Estrogen receptor alpha (ER alpha) recombinant protein (ESR1) (Homo sapiens, UniProt P03372); assay: Binding to the estrogen receptor by ultraviolet spectroscopy; conditions: UV spectroscopy; listed as vanillin
T1 sequence (P03372 1-595): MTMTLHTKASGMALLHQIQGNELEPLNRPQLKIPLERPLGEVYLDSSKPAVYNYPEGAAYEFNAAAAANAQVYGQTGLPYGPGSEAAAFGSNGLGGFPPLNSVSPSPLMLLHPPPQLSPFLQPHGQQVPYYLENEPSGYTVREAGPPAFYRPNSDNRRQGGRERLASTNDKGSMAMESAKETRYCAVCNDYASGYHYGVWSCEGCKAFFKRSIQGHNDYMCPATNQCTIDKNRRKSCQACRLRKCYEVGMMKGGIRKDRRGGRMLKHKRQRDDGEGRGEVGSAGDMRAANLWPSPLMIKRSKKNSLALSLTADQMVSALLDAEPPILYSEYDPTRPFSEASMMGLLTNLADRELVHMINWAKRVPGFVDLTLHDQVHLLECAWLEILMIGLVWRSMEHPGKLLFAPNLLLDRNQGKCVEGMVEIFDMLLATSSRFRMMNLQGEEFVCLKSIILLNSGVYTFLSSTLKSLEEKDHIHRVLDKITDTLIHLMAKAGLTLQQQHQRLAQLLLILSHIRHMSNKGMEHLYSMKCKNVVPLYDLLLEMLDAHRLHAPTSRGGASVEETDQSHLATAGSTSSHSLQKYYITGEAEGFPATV

ESR1 = molecular target: T2, ESR1 (Homo sapiens, UniProt P03372); assay: Competitive-binding ELISA of EST-HRP binding to the estrogen receptor
T2 construct: purchased Invitrogen-Thermofisher
T2 sequence (P03372 1-595): T1 sequence (P03372 1-595)

insulin receptor (IR) = insulin receptor (IR) (Homo sapiens, UniProt P06213); assay: Binding to the insulin receptor by ultraviolet spectroscopy; conditions: UV spectroscopy
Protocol: as §1
[17, 19, 20, 21, 22, 23]. […] Because CAP binds to INS, it was possible that it might antagonize INS binding to its receptor. […] Two types of ultraviolet spectroscopy experiments were performed. In one, INS (1 µM) and the IR were kept constant and the concentration of CAP increased from 0.1 µM to 100 µM. In the other, the CAP (25 µM) and IR were kept constant and the concentration of INS increased from 10 nM to 10 µM. In neither experiment was any significant change in the INS binding curve observed.
CAP did bind to the ESR1 with what appears to be a high affinity (Kd = 0.9 µM) and a lower affinity (Kd = 10 µM) site. […] Other vanilloid compounds also bound to the ESR1 but with lower affinity than CAP (Figure 6). None bound to the IR.

Chain of insulin (human recombinant) (P01308 25-54 limits assumed): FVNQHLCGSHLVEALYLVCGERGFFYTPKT
Chain of insulin (human recombinant) (P01308 90-110 limits assumed): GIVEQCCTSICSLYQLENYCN
Chain of insulin receptor (IR) (P06213 28-1382, species assumed): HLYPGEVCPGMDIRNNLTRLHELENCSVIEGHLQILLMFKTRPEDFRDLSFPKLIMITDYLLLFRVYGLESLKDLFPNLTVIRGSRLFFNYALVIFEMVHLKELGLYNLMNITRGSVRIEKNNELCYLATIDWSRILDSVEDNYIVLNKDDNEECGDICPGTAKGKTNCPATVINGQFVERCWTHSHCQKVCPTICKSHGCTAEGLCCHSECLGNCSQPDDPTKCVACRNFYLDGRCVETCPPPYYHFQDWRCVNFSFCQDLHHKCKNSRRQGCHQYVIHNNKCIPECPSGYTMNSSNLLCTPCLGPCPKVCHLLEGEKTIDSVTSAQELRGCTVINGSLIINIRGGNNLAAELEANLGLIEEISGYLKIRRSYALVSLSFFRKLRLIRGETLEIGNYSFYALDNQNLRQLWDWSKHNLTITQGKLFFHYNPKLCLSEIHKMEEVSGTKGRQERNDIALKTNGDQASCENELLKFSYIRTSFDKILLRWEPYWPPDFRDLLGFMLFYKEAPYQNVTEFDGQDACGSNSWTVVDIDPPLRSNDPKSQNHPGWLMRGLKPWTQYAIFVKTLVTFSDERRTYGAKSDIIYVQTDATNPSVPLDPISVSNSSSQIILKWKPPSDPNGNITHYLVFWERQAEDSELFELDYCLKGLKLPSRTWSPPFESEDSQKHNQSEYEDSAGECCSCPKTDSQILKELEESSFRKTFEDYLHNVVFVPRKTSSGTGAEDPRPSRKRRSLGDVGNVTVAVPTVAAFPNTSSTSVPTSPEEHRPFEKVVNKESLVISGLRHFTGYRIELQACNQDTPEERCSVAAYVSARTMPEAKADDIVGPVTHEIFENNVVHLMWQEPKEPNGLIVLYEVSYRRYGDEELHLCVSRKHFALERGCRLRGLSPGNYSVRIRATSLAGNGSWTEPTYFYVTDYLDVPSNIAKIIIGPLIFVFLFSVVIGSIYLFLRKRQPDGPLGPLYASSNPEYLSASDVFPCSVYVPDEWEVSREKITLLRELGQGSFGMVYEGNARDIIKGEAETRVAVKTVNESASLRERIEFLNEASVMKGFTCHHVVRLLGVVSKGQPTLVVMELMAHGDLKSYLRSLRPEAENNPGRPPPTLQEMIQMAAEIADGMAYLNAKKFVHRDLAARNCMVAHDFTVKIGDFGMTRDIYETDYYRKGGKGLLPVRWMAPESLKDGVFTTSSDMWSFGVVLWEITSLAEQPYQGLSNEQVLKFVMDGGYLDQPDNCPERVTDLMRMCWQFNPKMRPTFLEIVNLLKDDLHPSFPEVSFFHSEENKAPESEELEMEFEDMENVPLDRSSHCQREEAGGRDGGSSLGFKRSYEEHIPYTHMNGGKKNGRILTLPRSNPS

Binding (Kd) 4-Androstene-3,17-dione [2]	Binding (Kd) 5-Pregnan-3β-OL-2O-one [2]	Binding (Kd) Estradiol [2]	Binding (Kd) Estriol [2]	Binding (Kd) Progesterone [2]	Binding (Kd) Estradiol ([2]; listed as acetaminophen)	Kd ([1]; Binding (Kd) Insulin, Table 1) [µM]	Binding (Kd) Estradiol ([2]; listed as vanillic acid)	binding to the estrogen receptor (in words) [3]	effect on estradiol (EST-HRP) binding to the estrogen receptor (ESR1)	binding to the insulin receptor (in words) (insulin receptor (IR))	Binding (Kd) Estradiol ([2]; listed as vanillin)	Structure (SMILES)	binding to insulin (in words) [1]	effect on estradiol (EST-HRP) binding to the estrogen receptor (ESR1; listed as VAN)	binding to insulin (in words) ([1]; listed as vanillin)
No binding	No binding	No binding	No binding	No binding	did not bind directly to estradiol							CC(=O)Nc1ccc(O)cc1 [Acetaminophen, acetaminophen]	Neither vanillin nor acetaminophen bound significantly to insulin		
No binding	No binding	No binding	No binding	No binding		4	did not bind directly to estradiol					COc1cc(C(=O)O)ccc1O [Van Acid, vanillic acid]	bound almost as well as capsaicin		
No binding	No binding	No binding	No binding	No binding				weakly to the estrogen receptor	no effect on estradiol binding	did not bind significantly	did not bind directly to estradiol	COc1cc(C=O)ccc1O [Vanillin, vanillin]		no significant effect on estradiol binding	Neither vanillin nor acetaminophen bound significantly to insulin
										did not bind to the IR		C[C@]12CC[C@@H]3c4ccc(O)cc4CC[C@H]3[C@@H]1CC[C@@H]2O [estradiol]			
